What was measured:
Endothelial cell C166 = test: EC proliferation (MTT cell proliferation assay); type: cell-based
Description: Endothelial cell C166 was purchased from ATCC and grown at 37° C. in a humidified atmosphere of 5% CO2 in DMEM (Invitrogen) supplemented with 10% FBS.
(§1) Cell proliferation was evaluated with 3-(4,5-dimethylthiazol-2-yl)-2,5-diphenyltetrazolium (MTT) assay using a TACS MTT Cell Proliferation Assay Kit (Trivegen). The optical density at 570 nm was measured.

[1] = tested on: wire-injured mouse carotid artery; test: Mouse carotid artery wire injury model, re-endothelialization (Evans Blue); type: in vivo; settings: 10 mg/kg/day, in the presence of CPEC
Description: Mice were anesthetized with ketamine hydrochloride (80 mg/kg IP) and xylazine (5 mg/kg IP), a 0.38-mm flexible angioplasty guidewire was advanced by 1 cm via a transverse arteriotomy of the external carotid artery, and endothelial denudation of the common carotid artery was achieved by 3 rotational passes (Werner, et al., Circ. Res., 93:e17-e24 (2003)).
To further establish CTPS function in re-endothelialization after vascular injury, the endothelial denudation and re-endothelialization was tested in a different model, i.e., mouse wire-injury model. […] Systematic administration of CPEC was achieved via osmotic pump (1 mg/kg/day). Re-endothelialization in mouse arteries occurred rapidly following injury (FIG. 6B). 5 days after injury, re-endothelialization was completed, consistent with the previous reports (Hagensen, et al., Cardiovasc Res., 93:223-231 (2012)).

CTP synthetase = settings: cited from earlier work; for CTPS activity: literature
[2] = tested on: Rat aortic smooth muscle cells (SMCs); test: SMC proliferation (MTT cell proliferation assay); type: cell-based
Description: Rat aortic smooth muscle cells (SMCs) were cultured by enzyme-digestion method from rat thoracic aorta as described previously (Hofer, et al., Proc Natl Acad Sci USA., 98:6412-6416 (2001), Marquez, et al., Biochem Pharmacol., 41:1821-1829 (1991), (Berg, et al., Eur. J. Biochem., 216:161-167 (1993)). SMC phenotype of the cultured cells was confirmed by the expression of smooth muscle alpha-actin and SM22-alpha.
as §1

[3] = tested on: Rat aortic smooth muscle cells (SMCs); test: In vitro SMC apoptosis, PI/Annexin V flow cytometry; type: cell-based; settings: 24 h treatment with 500 nM
Description: (§2) In vivo cell apoptosis was evaluated by detecting DNA fragmentation using the terminal deoxynucleotidyl transferase (TdT)-mediated dUTP-digoxigenin nick end-labeling method (TUNEL kit, Roche, USA). Apoptotic cells were observed under a fluorescent microscope. In vitro cell apoptosis was measured by Flow Cytometry. Cells were stained with both Annexin V-FITC (BD Biosciences) and propidium iodide (PI) and analyzed on a FACSCALIBUR™ (Becton Dickinson). The percentages of positive-stained cells were quantified using […]™ software (Becton Dickinson). Non-stained cells served as controls.

neointima SMCs = test: In vivo cell apoptosis by TUNEL assay in injured arteries; set-up: species or system rat; settings: 2 mg/kg b.w./day
Description: as §2
To confirm the specificity of CTPS1 function, CTPS1 was knockdown using adenoviral-mediated shRNA delivery in injured arteries.

[4] = tested on: balloon-injured rat carotid arteries; test: Re-endothelialization in rat carotid artery balloon injury model (CD31, Evans blue); type: in vivo; settings: 1 mg/kg CPEC, day 14
Description: Rat carotid artery balloon injury was performed using 2F Fogarty arterial embolectomy balloon catheter (Baxter Edwards Healthcare) as described previously (Tulis, Methods Mol. Med., 139:1-30 (2007)). 7, 14 or 60 days later, the balloon-injured arteries were perfused with saline, fixed with 4% paraformaldehyde, embedded in paraffin, and sectioned. Subsequent morphometric analyses were performed in a double-blinded manner. Ten sections that were evenly distributed in the vessel segments were collected for analysis. The sections were stained with modified hematoxylin and eosin or elastica van Gieson (VG) staining. Cross-sectional images were captured with a Nikon microscope (Nikon America Inc). The circumference of the lumen, internal elastic lamina, and external elastic lamina were measured using Image-pro Plus Software. For immunohistochemistry (IHC) staining, sections were rehydrated, blocked with 5% goat serum, permeabilized with 0.01% Triton X-100 in PBS, and incubated with primary antibodies at 4° C. overnight followed by incubation with horseradish peroxidase-conjugated secondary antibody. The sections were counterstained with hematoxylin.
To determine if CTPS1 plays a role in re-endothelialization during vascular remodeling in vivo, CPEC was administered systematically via osmotic pump into rats with balloon-injury or mice with wire-injury in their carotid arteries. […]

[5] = abundant (10 μM) cytidine alone (FIG. 6D)

O=c1oc2c(O)c(O)cc3c(=O)oc4c(O)c(O)cc1c4c23 [EA, ellagic acid]
cytidine-restored EC proliferation (Endothelial cell C166; CPEC + cytidine): blocked cytidine-restored EC proliferation in a dose-dependent manner | re-endothelialization [1]: dramatically impaired

N[C@H](C(=O)O)[C@@H]1CC(Br)=NO1 [3-bromoacivicin]
CTP synthetase inhibitor potency relative to 3-chloro analog (acivicin) (CTP synthetase; Conti, et al, ChemMedChem (2011)): three times as potent

Nc1ccn([C@@H]2O[C@H](CO)[C@@H](O)[C@H]2O)c(=O)n1 [cytidine]
restoration of SMC proliferation blocked by high dosage of CPEC ([2]; 500 nM CPEC + 10 μM cytidine): not SMC | restoration of EC proliferation blocked by high dosage of CPEC (Endothelial cell C166; 500 nM CPEC + 10 μM cytidine): restored EC

CC(=O)O[C@H]1C(=O)[C@@]2(C)[C@H]([C@H](OC(=O)c3ccccc3)[C@]3(O)C[C@H](OC(=O)[C@H](O)[C@@H](NC(=O)c4ccccc4)c4ccccc4)C(C)=C1C3(C)C)[C@]1(OC(C)=O)CO[C@@H]1C[C@@H]2O [paclitaxel, Paclitaxel]
SMC proliferation ([2]; 20 nmol/L or 500 nmol/L): suppressed | EC proliferation (Endothelial cell C166; 20 nmol/L or 500 nmol/L): suppressed | restoration of inhibitory effect on EC and SMC proliferation by cytidine (Endothelial cell C166; 500 nM paclitaxel with 10 μM cytidine): could not be restored by cytidine | relative sensitivity of SMCs and ECs (proliferation) (Endothelial cell C166; ECs compared with SMCs): ECs seemed to be more sensitive to paclitaxel than SMCs

Nc1ccn([C@@H]2O[C@H](COP(=O)(O)OP(=O)(O)OP(=O)(O)O)[C@@H](O)[C@H]2O)c(=O)n1 [CTP]
SMC proliferation [2, 5]: not to be able to stimulate | EC proliferation (Endothelial cell C166; [5]): not to be able to stimulate

Nc1ccn([C@@H]2C=C(CO)[C@@H](O)[C@H]2O)c(=O)n1 [CPEC, cyclopentenyl cytosine]
SMC apoptosis [3]: did not induce SMC apoptosis | in vivo cell apoptosis (TUNEL) (neointima SMCs): no apoptotic cells were observed | re-endothelialization area of the injured vessels (Evans blue) [4]: 66%

carbodine
CTPS activity (CTP synthetase): effectively block CTPS activity

[N-]=[N+]=CC(=O)CC[C@H](N)C(=O)O [6-diazo-5-oxonorleucine, 6-diazo-5-oxo-L-norleucin]
CTPS activity (CTP synthetase): effectively block CTPS activity
